Data on 53 molecules can be found in publication PMC11056319, “Targeting PRMT9-mediated arginine methylation suppresses cancer stem cell maintenance and elicits cGAS-mediated anticancer immunity” (Nature Cancer, 2024).

The assay relates to Molm13. As to the kind of experiment: cells. The arrangement: Molm13 cell viability screen of virtual-screening hits, 4 days of treatment, per cent of control. Conditions: Homo sapiens, MOLM-13, 96 h, 4 days. On the procedure:
We performed virtual screening. Briefly, we screened compounds for binding affinity to PRMT9; compounds were from the National Cancer Institute (NCI) and ZINC library (Fig. 4a,b). […] We used doses of 1 and 5 µM in a Molm13 cell-based viability assay (Extended Data Fig. 6a). […] Specifically, we assessed their effects on PRMT9 catalysis (Extended Data Fig. 6b). […] Cells were treated for 4 days with 1 or 5 μM compounds. For each compound, the number represents its library ID. Experiments were triplicated; P values were derived from t tests. b, R493 methylation assay. […] Catalytic activity was assessed by anti-R493 antibody. Synthesized R493me peptide as positive control. c, Catalysis screen of top 20 compounds. PRMT9 protein was pretreated with indicated compound (10 μM), then incubated with PABPC1 peptides and SAM. d, e, Catalytic activity of indicated compounds based on R493 methylation assay (d). Inhibition curves were calculated based on intensity of dots and normalized to DMSO (e). […] LD2 is designed based on NSC641396 (g). Docking model of NSC641396 in the catalytic pocket (f). h, IC50 analysis of LD2 in B-NHL lines. Cells were treated for 4 days with LD2. […] Cells were treated with a dose titration of 0.5–40 μM LD2 for 48 hr. The inhibition activity of LD2 to PRMT9 (right red curve) was evaluated by calculating the normalized PABPC1 R493 methylation signal. The inhibition activity of LD2 to PRMT5 (right blue curve) was evaluated by calculating the normalized SmB’B’ methylation signal (supplementary Fig. 2). k, Vina docking of LD2 with PRMT9, PRMT5, CARM1 or PRMT7 was performed, and the average docking scores (kcal/mol, with standard deviation) were shown. l, Molecular dynamics simulation analyses of LD2 with PRMT9 or PRMT5.
A word on the viability: it is a read-out of living cells in per cent, often relative to untreated cells. For the molecule `O=C(/C=C/c1ccc(O)c(O)c1)O[C@@H]1C[C@@](OC(=O)/C=C/c2ccc(O)c(O)c2)(C(=O)O)C[C@@H](O)[C@@H]1O` [NSC91529], the viability at 1 µM was 110%.
As to `OC(c1cc(-c2ccc(C(F)(F)F)cc2)nc(C(F)(F)F)c1)C1CCCCN1` (centres unmarked) [NSC305798], the viability at 1 µM is 91% and the viability at 5 µM came to 18.9%.
`O=C(Nc1ccccc1F)Nc1cccc2ccc(O)cc12` [NSC214005]: the viability at 1 µM is 81.3% and the viability at 5 µM was 72.7%.
Consider `Cc1ccc(NC(=O)Nc2nc3ccccc3s2)cc1NC(=O)Nc1nc2ccccc2s1` [NSC319990], for which the viability at 5 µM came out at 96.9%.
As for `CC(=O)OCc1cc(-c2nc3ccccc3nc2O)nn1-c1ccc(Cl)cc1` [NSC339161], the viability at 5 µM was 87.5%.
With `CC[C@@]1(O)C(=O)OCc2c1cc1n(c2=O)Cc2cc3ccccc3nc2-1` [NSC94600], the viability at 1 µM amounted to 2.48% and the viability at 5 µM was found to be 1.54%.
Take `O=C1c2ccccc2-c2nc3ccccc3n21` [NSC252777]: the viability at 1 µM turned out to be 77.6% and the viability at 5 µM was determined as 63.7%.
For the molecule `OC(COc1cccc2ccccc12)CN1CCN(c2ccc(Cl)cc2)CC1` (centres unmarked) [NSC111210], the viability at 1 µM was 160% and the viability at 5 µM was found to be 139%.
Consider `COc1ccc(NC(=O)c2cc3ccc4c5ccccc5[nH]c4c3cc2O)cc1` [NSC50654], for which the viability at 1 µM was 127% and the viability at 5 µM amounted to 134%.
In the case of `Cc1nn(-c2ccccc2)c2c1C(c1ccc([N+](=O)[O-])cc1)C(C#N)=C(N)O2` (centres unmarked) [NSC298892], the viability at 1 µM was found to be 84.2% and the viability at 5 µM worked out at 69.1%.
In the case of `O=[N+]([O-])c1ccc(C2CC(c3ccccc3)=Nc3ccccc3S2)cc1` (centres unmarked) [NSC270738], the viability at 1 µM stood at 84.6%.
Consider `c1ccc(CSc2nnc3c4ccccc4c4ccccc4c3n2)cc1` [NSC327702], for which the viability at 1 µM was determined as 86.4% and the viability at 5 µM was determined as 82.6%.
As to `CO[C@@H]1C[C@](C)(O)Cc2cc3c(c(O)c21)C(=O)c1c(O)cc2c(c1C3=O)O[C@@H]1O[C@@]2(C)[C@H](O)[C@@H](N(C)C)[C@@H]1O` [NSC269148], the viability at 1 µM stood at 2.1% and the viability at 5 µM worked out at 1.55%.
For `O=C(O)c1cc2ccccc2cc1Nc1ccccc1` [NSC40275], the viability at 1 µM was determined as 116%.
Consider `Nc1nc(N)c2cc(Sc3ccc4ccccc4c3)ccc2n1` [NSC305780], for which the viability at 1 µM came out at 12.7% and the viability at 5 µM was 6.56%.
In the case of `c1ccc(-c2ccc(-c3nccc4ccccc34)[nH]2)cc1` [NSC116644], the viability at 5 µM was determined as 88.3%.
On to `Cc1cccc(NC2=C(C#N)C(=O)NC3(CCCC3)S2)c1` [NSC319436], for which the viability at 1 µM worked out at 84% and the viability at 5 µM came out at 77.3%.
On to `COC(=O)[C@@H]1[C@H](O)[C@H](C)[C@H](O)[C@H](C)/C=C\C=C(/C)C(=O)Nc2c(C)c(OC(C)=O)c3c(c2O)C(=O)C(C)=C2OCOC(=C23)/C(C)=C/[C@@](C)(O)[C@H](O)[C@@H](C)[C@H]1O` [NSC19990], for which the viability at 1 µM was determined as 68.6% and the viability at 5 µM came out at 83.8%.
Take `CC(=O)O[C@H]1CC[C@@]2(C)[C@@H](CC[C@@H]3[C@@H]2CC(=O)[C@@]2(C)[C@H]3C[C@@H]3CC(C)=CC(=O)[C@@H]32)C1` [NSC59620]: the viability at 5 µM was 93.6%.
Regarding `O=C(O)c1ccccc1-c1ccccc1C(=O)Nc1ccc2c(c1)nc(O)c1ccccc12` [NSC127133], the viability at 1 µM turned out to be 99% and the viability at 5 µM turned out to be 102%.
As for `CN1CCN(C(=O)Nc2cccc(-c3ccccc3)c2)CC1` [NSC39352], the viability at 1 µM is 96.7%.
On to `c1ccc(-n2c3ccccc3c3ccccc32)cc1` [NSC10416], for which the viability at 1 µM turned out to be 99.1% and the viability at 5 µM was found to be 81.7%.
Consider `O=C(Nc1ccccc1F)Oc1cccc(OC(=O)Nc2ccccc2F)c1` [NSC214026], for which the viability at 1 µM amounted to 92.2% and the viability at 5 µM was determined as 91%.
Take `CCNc1nc(Cl)nc(-c2cn(-c3ccccc3)c3ccccc23)n1` [NSC142446]: the viability at 1 µM was determined as 87.1%.
In the case of `Cc1ccc(C2=Nc3ccccc3SC(c3cccc([N+](=O)[O-])c3)C2)cc1` (centres unmarked) [NSC270737], the viability at 1 µM turned out to be 90.8% and the viability at 5 µM was determined as 15.1%.
For `Cc1c(Cl)cccc1NC(=O)CC1Sc2ccccc2NC1=O` (centres unmarked) [NSC634396], the viability at 1 µM worked out at 169% and the viability at 5 µM is 118%.
In the same order, the values of `CCN(CC)c1nc(Cl)nc(Nc2ccc3cc(-c4ccccc4)c(=O)oc3c2)n1` [NSC338963] are 114% and 110%.
Take `COc1ccc2c(c1)c1ccc3c(c1n2C)C(=O)C=CC3=O` [NSC641396]: the viability at 1 µM was determined as 2.72% and the viability at 5 µM was found to be 1.44%.
In the case of `CCn1c2ccccc2c2cc(NC(=O)c3ccccc3-c3ccccc3C(=O)O)ccc21` [NSC132232], the viability at 1 µM was found to be 91.3%.
On to `CN1C2c3ccccc3C3C4c5ccccc5C(C31)C(C2[N+](=O)[O-])N4C` (centres unmarked) [NSC137112], for which the viability at 1 µM is 146% and the viability at 5 µM was found to be 148%.
In the same order, the values of `CC(=O)c1sc2c(c1OC(=O)c1ccc(Cl)cc1Cl)c(=O)n(-c1ccccc1)c(=S)n2-c1ccccc1` [NSC671136] are 71.5% and 12.8%.
For `COc1cc(C2NC(=O)C(C#N)=C(Nc3cccc(C)c3)S2)ccc1O` (centres unmarked) [NSC319435], the viability at 1 µM came to 96.8%.
On to `Nc1ccc(-c2nc3nc(N)nc(N)c3nc2-c2ccc(N)cc2)cc1` [NSC61642], for which the viability at 5 µM turned out to be 116%.
For the molecule `O=C(Nc1cccc([N+](=O)[O-])c1)c1cccc(C(=O)Nc2cccc([N+](=O)[O-])c2)c1` [NSC204232], the viability at 1 µM was 110%.
Turning to `CC(=O)O[C@H]1CC[C@]2(C)C(=CC[C@H]3[C@H]4C[C@H]5O[C@]6(CC[C@H](C)CN6)[C@H](C)[C@@H]5[C@]4(C)CC[C@@H]32)C1` [NSC96021], the viability at 1 µM stood at 102% and the viability at 5 µM is 87.9%.
On the same counts, the results for `COc1ccc(/C=C2\Cc3ccccc3C2=O)cc1OC` [NSC643174] are 116% and 81%.
In the case of `Cc1ccc(NC(=S)NC(=O)c2ccccc2)cc1NC(=S)NC(=O)c1ccccc1` [NSC5856], the viability at 1 µM came to 91.4% and the viability at 5 µM is 91.5%.
Consider `Cc1cccc2c1c1ccc3c(c1n2C)C(=O)C=CC3=O` [NSC645330], for which the viability at 1 µM is 52.5% and the viability at 5 µM worked out at 10%.
In the case of `Cc1c(N2CCCC2)cc2c(c1NC(=O)c1ccccc1Cl)C(C)(C)CC2(C)C` [NSC321496], the viability at 1 µM was found to be 92.4% and the viability at 5 µM was 79.1%.
In the same order, the values of `Oc1ccc(N=Cc2c(O)ccc3ccccc23)cc1` [NSC111848] are 93.1% and 74.1%.
As to `O=C(Nc1cccc2ccccc12)c1cc2c(cc1Br)OCO2` [NSC292923], the viability at 1 µM amounted to 68.9% and the viability at 5 µM turned out to be 68.3%.
In the same order, the values of `OC(COc1cccc2ccccc12)CN1CCN(c2ccccc2)CC1` (centres unmarked) [NSC91398] are 59.8% and 60.9%.
Turning to `O=C(O)C(Cc1c[nH]c2ccccc12)N1C(=O)c2ccccc2C1=O` (centres unmarked) [NSC401077], the viability at 1 µM worked out at 94.6% and the viability at 5 µM came to 75.3%.
Consider `COc1cccc(/C=C2\CCc3ccccc3C2=O)c1` [NSC636718], for which the viability at 5 µM was 65.6%.
On to `O=C(Nc1ccc(Nc2ccncc2)cc1)c1ccc(Nc2ccnc3ccc([N+](=O)[O-])cc23)cc1[N+](=O)[O-]` [NSC202386], for which the viability at 1 µM is 118% and the viability at 5 µM amounted to 80.4%.
For `O=C(Nc1ccc(Nc2ccncc2)cc1)c1ccc(Nc2ccnc3ccc([N+](=O)[O-])cc23)cc1` [NSC146771], the viability at 1 µM worked out at 91.1%.
Take `O=C1c2cccc(Oc3ccccc3)c2C(=O)c2cccc(Oc3ccccc3)c21` [NSC37627]: the viability at 1 µM came out at 144% and the viability at 5 µM turned out to be 151%.
For `Clc1ccc(-c2n[nH]c3c2Cc2ccccc2-3)cc1Cl` [NSC331968], the viability at 1 µM stood at 62.9% and the viability at 5 µM worked out at 43.2%.
In the same order, the values of `Cc1ccc2c(c1)c1ccc3c(c1n2C)C(=O)C=CC3=O` [NSC661221] are 7.53% and 7.31%.
As for `O=C(Nc1cccc(-c2ccccc2)c1)N1CCN(C(=O)Nc2cccc(-c3ccccc3)c2)CC1` [NSC37553], the viability at 1 µM worked out at 96.2%.
As for `Cc1ccc(N2CCN(CC(O)COc3cccc4ccccc34)CC2)cc1` (centres unmarked) [NSC91402], the viability at 1 µM was 156% and the viability at 5 µM came out at 145%.
Take `Cc1cc2cc3c(=O)[nH]c(=O)[nH]c3nc2cc1C` [NSC109174]: the viability at 5 µM was 79.9%.
For the molecule `O=[N+]([O-])c1ccc2[nH]c3nc4ccccc4nc3c2c1` [NSC78697], the viability at 1 µM was 169% and the viability at 5 µM was 157%.
